Series [1] can be described thus: Cassette dosing and serum analysis for determination of oral bioavailability. The format is in vivo, Sprague Dawley (SD) rats. Particulars: rats, oral cassette of 6 compounds, total dose 10 mg/kg, plasma samples at 4, 8 and 12 h. The method, then:
The oral bioavailability was screened by dosing rats with a cassette, i.e. mixture of 6 compounds per dosing solution. The cassette included 5 test articles and a standard compound, for a total dose of 10 mg/kg. Each compound/test article was converted to the sodium salt with equimolar 1 N NaOH and dissolved in water at 2 mg/mL. The cassette was prepared by mixing equal volumes of each of the six solutions. The cassette dosing solution was mixed well and then the pH was adjusted to 7.5-9. The dosing solution was prepared the day before the study and stirred overnight at room temperature.
Male Sprague Dawley (SD) rats from Charles River Laboratories, 6-8 weeks old were used in this screen. Rats were quarantined for at least one day and had continuous access to food and water. On the night before the administration of the cassette, the rats were fasted for approximately 16 h.
Four SD rats were assigned in each cassette. A single dose of the dosing solution was administered orally to each rat. The dosing volume (5 mL/kg) and time were recorded and rats were fed 2 h after dosing.
Blood samples were collected via cardiac puncture at the following time points: 4 h, 8 h and 12 h. Immediately prior to blood collection, rats were anesthetized with CO2 gas within 10-20 seconds. After the 12-hour samples were collected, the rats were euthanized via CO2 asphyxiation followed by cervical dislocation.
Blood samples were kept in heparinized microtainer tubes under sub-ambient temperature (4° C.) before they were processed. Blood samples were centrifuged (10000 rpm for 5 minutes) and plasma samples were removed and stored in a −20° C. freezer until analyzed for drug levels. Drug levels in the plasma were analyzed using the following protocol for direct plasma precipitation.
The in vivo plasma samples were prepared in a 1.5 mL 96-well plate, by adding, in order, 100 μL of the test plasma, 150 μL of methanol, followed by vortexing for 10-20 seconds. 150 μL of 0.05 ng/μL of an Internal Standard in acetonitrile were added and vortexed for 30 seconds.
The standard curve samples were prepared in a 1.5 mL 96-well plate, by adding, in order, 100 μL of control mouse plasma, followed by 150 μL of methanol and vortexing for 10-20 seconds. 150 μL of 0.05 ng/μL of an Internal Standard in acetonitrile were added and vortexed for 30 seconds. The samples were spiked with 0-200 ng (10 concentrations) of the compound of interest in 50% methanol to obtain a standard curve range of 0.5 ng/mL-2,000 ng/mL. Again, the sample was vortexed for 30 seconds.
The samples were then spun for 20-30 minutes at 3000 rpm in an Eppendorf microfuge before 80-90% of supernatant was transferred into a clean 96-well plate. The organic solvent was then evaporated until the samples were dry (under N2 at 40° C./30-60 min (ZymarkTurbovap)).
The residue was then dissolved in 200-600 L mobile phase (50% CH3OH/0.1% TFA). LC/MS/MS was then run using a PE-Sciex API-3000 triple quadurpole mass spectrometer (SN0749707), Perkin-Elmer, Series200auto-sampler, and shimadzu 10A pump. Acquisition was done with PE-Sciex Analyst (v1.1) and data analysis and quantification were accomplished using PE-Sciex Analyst (v1.1). A 5-50 μL sample volume was injected onto a reverse phase ThermoHypersil DASH-18 column (Keystone 2.0×20 mm, 5 μm, PN: 8823025-701) using a mobile phase of 25% CH3OH, 0.1% TFA-100% CH3OH, 0.1% TFA. The run time was about 8 minutes at a flow rate of about 300 μL/minutes.
The Area Under the Curve (AUC) was calculated using the linear trapezoidal rule from t=0 to the last sampling time tx (see Handbook of Basic Pharmacokinetics, Wolfgang A. Ritschel and Gregory L. Kearns, 5th ed, 1999). AUC^0−+tx=S((Cn+Cn+1)/2))·(tn+1−tn)[(μg/mL)h]
In the case of the cassette dosing paradigm, samples at 4, 8 and 12 h post extravascular dosing, the AUC was calculated from t=0 to t=12 h.

Series [2] concerns the target T1, α4β1 Integrin (Homo sapiens, UniProt P05556+P13612).
T1 construct: endogenous in cells; host or cells: Jurkat cells
The series can be described thus: α4β1 Integrin Adhesion Assay: Jurkat cell adhesion to human plasma fibronectin. The format is cell-based. To be noted: Jurkat cells. How it is done:
96 well plates (Costar 3590 EIA plates) were coated with human fibronectin (Gibco/BRL, cat #33016-023) at a concentration of 10 μg/mL overnight at 4° C. The plates were then blocked with a solution of bovine serum albumin (BSA; 0.3%) in saline. Jurkat™ cells (maintained in log phase growth) were labeled with Calcein AM according to the manufacturer's instructions, and suspended at a concentration of 2×10^6 cells/mL in Hepes/Saline/BSA. The cells were then exposed to test and control compounds for 30 minutes at room temperature before transfer to individual wells of the fibronectin coated plate. Adhesion was allowed to occur for 35 minutes at 37° C. The wells were then washed by gentle aspiration and pipetting with fresh saline. Fluorescence associated with the remaining adherent cells was quantified using a fluorescence plate reader at EX 485/EM 530.
Cell cultures were prepared by first splitting the stationary phase Jurkat™ cells at 1:10 on day one, and 1:2 on day two to perform assay on day 3. The cells split 1:10 on day one were split 1:4 on day 3 for a day 4 assay.
The assay plates were prepared by first making a working solution of Gibco/BRL Human Fibronectin (cat # 33016-023) in PBS++, at 10 μg/mL.
A Costar 3590 EIA plate was then coated with 50 μL/well for 2 hours at room temperature (thought it can also be left overnight at 4° C). Finally the plate was asperated and blocked with Hepes/Saline Buffer, 100 μL/well, for 1 hour at RT followed by washing three times with 150 μL of PBS++.
Compound dilutions were accomplished by preparing 1:3 serial dilutions of compounds as follows. For each plate (4 compounds/plate) 600 μL were added to 4 Bio-Rad Titertubes in a Titertube rack. Enough compound was added to each appropriate tube to give a 2× concentration using methods well known in the art. Using Falcon Flexiplates, 100 μL of Hepes/Saline buffer or human serum were added to rows B through G. A multi-channel pipetter set to 180 μL was used to with four tips spaced evenly the pipetter. Each set of four tubes was mixed 5 times and 180 μL, of 2× compound was transferred to the first column of each compound dilution in Row B, leaving Row A empty. 180 μL were added to the other wells in Row A. Serial dilutions were performed down the plate by transferring 50 μL to the next dilution and mixing 5 times, changing tips each time after mixing. Dilutions were stopped at Row F. Row G had no compound present.
A 20 μg/mL solution in Hepes/Saline buffer or human serum, of 21/6 antibody was the positive control and was set aside in a reagent trough to add to cell suspension plate.
The cell staining was accomplished by first harvesting the log-phase Jurkat™ cells by centrifugation in 50 mL tubes (1100 rpm for 5 minutes). The cells were resuspended in 50 mL PBS++, spun, and resuspend in 20 mL PBS++. The cells were stained by adding 20 μL of Calcein AM for 30 minutes R.T. The volume was brought to 50 mL with Hepes/Saline buffer and the cells were counted, spun, and resuspend to 2×10^6 cells/mL in Hepes/Saline buffer or human serum.
The compounds were incubated using the following procedure. In a new flexiplate, 65 μL of stained cells were added to Rows B through H. Then 65 μL of 2× compounds were added to the appropriate rows following the plate setup and mixed 3×. 65 μL of 2×-21/6 antibody were added to Row H and mixed 3×. Finally the plate was incubated at room temperature for 30 minutes.
Fibronectin adhesion was measured using a fluorescent plate reader at EX 485/EM 530 after the following work up procedure. After incubation, the cells were mixed 3× and 100 μL were transferred to the Fibronectin coated plates and incubated at 37° C. for about 35 minutes. Each plate was washed, row by row, by gently pipetting 100 μL of R.T. PBS++ down the sides of the wells and turning the plate 90 degrees to aspirate. This procedure was repeated for a total of 3 washes. Each well was filled with 100 μL after washing by pipetting down the side of the well. […]

T1 sequence (P13612 34-1032): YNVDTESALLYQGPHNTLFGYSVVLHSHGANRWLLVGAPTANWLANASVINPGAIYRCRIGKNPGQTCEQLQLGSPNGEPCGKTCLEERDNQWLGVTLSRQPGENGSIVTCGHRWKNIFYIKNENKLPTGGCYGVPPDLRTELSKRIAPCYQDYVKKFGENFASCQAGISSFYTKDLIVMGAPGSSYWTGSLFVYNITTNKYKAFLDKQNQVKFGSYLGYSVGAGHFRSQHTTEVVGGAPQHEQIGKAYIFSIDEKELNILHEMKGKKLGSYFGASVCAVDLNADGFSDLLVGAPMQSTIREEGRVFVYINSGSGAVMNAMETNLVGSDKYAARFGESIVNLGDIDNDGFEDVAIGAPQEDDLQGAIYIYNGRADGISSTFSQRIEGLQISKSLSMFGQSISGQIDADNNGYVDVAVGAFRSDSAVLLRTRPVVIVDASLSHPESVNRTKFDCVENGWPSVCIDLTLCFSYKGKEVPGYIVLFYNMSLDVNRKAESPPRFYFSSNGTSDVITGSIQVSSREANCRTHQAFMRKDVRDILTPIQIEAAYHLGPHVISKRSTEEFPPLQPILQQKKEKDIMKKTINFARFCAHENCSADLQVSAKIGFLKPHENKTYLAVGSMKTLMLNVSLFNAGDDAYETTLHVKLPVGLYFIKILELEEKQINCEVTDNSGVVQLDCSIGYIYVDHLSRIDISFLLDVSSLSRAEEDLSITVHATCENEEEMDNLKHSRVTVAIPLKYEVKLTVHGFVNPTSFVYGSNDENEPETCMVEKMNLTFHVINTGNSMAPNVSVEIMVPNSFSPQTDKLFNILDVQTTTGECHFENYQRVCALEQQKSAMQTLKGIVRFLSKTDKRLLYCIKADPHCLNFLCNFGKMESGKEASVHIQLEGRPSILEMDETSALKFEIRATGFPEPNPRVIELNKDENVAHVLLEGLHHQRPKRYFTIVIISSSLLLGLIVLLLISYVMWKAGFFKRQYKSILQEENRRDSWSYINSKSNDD
T1 sequence (P05556 21-798): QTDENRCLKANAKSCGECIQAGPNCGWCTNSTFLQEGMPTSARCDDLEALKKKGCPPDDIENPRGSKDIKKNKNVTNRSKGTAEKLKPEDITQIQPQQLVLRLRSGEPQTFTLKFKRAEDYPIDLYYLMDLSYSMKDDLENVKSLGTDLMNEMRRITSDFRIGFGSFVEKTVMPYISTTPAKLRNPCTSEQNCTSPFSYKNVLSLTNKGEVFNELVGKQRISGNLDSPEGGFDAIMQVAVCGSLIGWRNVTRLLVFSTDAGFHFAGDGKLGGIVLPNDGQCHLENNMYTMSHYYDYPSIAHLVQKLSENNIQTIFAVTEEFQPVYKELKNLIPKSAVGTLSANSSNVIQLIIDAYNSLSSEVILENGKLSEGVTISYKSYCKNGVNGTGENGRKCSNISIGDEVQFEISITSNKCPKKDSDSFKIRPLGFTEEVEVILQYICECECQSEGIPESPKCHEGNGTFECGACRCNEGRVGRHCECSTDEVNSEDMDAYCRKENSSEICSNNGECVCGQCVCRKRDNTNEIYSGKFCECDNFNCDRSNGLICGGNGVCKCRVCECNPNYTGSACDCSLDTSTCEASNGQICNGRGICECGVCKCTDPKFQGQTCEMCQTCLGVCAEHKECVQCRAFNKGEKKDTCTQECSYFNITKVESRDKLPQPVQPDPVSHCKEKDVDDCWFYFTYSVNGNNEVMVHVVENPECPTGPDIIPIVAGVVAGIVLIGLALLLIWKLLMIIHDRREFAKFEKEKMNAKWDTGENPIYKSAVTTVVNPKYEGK

With “2-{2-diethylamino-5-[(2,3-difluorobenzenesulfonyl)ethylamino]pyrimidin-4-ylamino}-3-(4-dimethylcarbamoyloxyphenyl)propionic acid [Example 26]”, in series [1], the “AUC (average AUC 0-12 h)” value is 0.3392 (μg/mL)h. Moreover, in series [2], the “IC50, Cell Adhesion to Human Plasma Fibronectin (With human serum)” value (“IC50, Cell Adhesion … (With human serum)” for short) came out at 0.01848 µg/mL and the “IC50, Cell Adhesion to Human Plasma Fibronectin (Without the human serum)” value (“IC50, Cell Adhesion … (Without the human serum)” for short) came to 0.001 µg/mL.

Take “2-{2-diethylamino-5-[(2,4-difluorobenzenesulfonyl)ethylamino]pyrimidin-4-ylamino}-3-(4-dimethylcarbamoyloxyphenyl)propionic acid [Example 18]”: the “AUC (average AUC 0-12 h)” value in series [1] is 0.2578 (μg/mL)h. Further, in series [2], the “IC50, Cell Adhesion … (With human serum)” value was 0.025 µg/mL and the “IC50, Cell Adhesion … (Without the human serum)” value stood at 0.002 µg/mL.

For “2-{2-diethylamino-5-[(2,4-difluorobenzenesulfonyl)methylamino]pyrimidin-4-ylamino}-3-(4-dimethylcarbamoyloxyphenyl)propionic acid [Example 17]”, in series [1], the “AUC (average AUC 0-12 h)” value is 1.0075 (μg/mL)h. In addition, in series [2], the “IC50, Cell Adhesion … (With human serum)” value turned out to be 0.024 µg/mL and the “IC50, Cell Adhesion … (Without the human serum)” value was 0.001 µg/mL.

With “2-{2-diethylamino-5-[(2,5-difluorobenzenesulfonyl)methylamino]pyrimidin-4-ylamino}-3-(4-dimethylcarbamoyloxyphenyl)propionic acid [Example 25]”, the “AUC (average AUC 0-12 h)” value in series [1] is listed as 0.4559 (μg/mL)h. Further, in series [2], the “IC50, Cell Adhesion … (With human serum)” value stood at 6.72 µg/mL and the “IC50, Cell Adhesion … (Without the human serum)” value came out at 0.006 µg/mL.

As to “2-{2-diethylamino-5-[(3,4-dichlorobenzenesulfonyl)methylamino]pyrimidin-4-ylamino}-3-(4-dimethylcarbamoyloxyphenyl)propionic acid [Example 4]”, in series [1], the “AUC (average AUC 0-12 h)” value is recorded as 0.5965 (μg/mL)h. Further, in series [2], the “IC50, Cell Adhesion … (With human serum)” value was 0.4 µg/mL and the “IC50, Cell Adhesion … (Without the human serum)” value was determined as 0.004 µg/mL.

With “2-{2-diethylamino-5-[(3,4-difluorobenzenesulfonyl)ethylamino]pyrimidin-4-ylamino}-3-(4-dimethylcarbamoyloxyphenyl)propionic acid [Example 12]”, in series [1], the “AUC (average AUC 0-12 h)” value is 0.8447 (μg/mL)h. Besides, in series [2], the “IC50, Cell Adhesion … (With human serum)” value turned out to be 0.06 µg/mL and the “IC50, Cell Adhesion … (Without the human serum)” value stood at 0.003 µg/mL.

For “2-{2-diethylamino-5-[(3,5-dichlorobenzenesulfonyl)ethylamino]pyrimidin-4-ylamino}-3-(4-dimethylcarbamoyloxyphenyl)propionic acid [Example 20]”, in series [1], the “AUC (average AUC 0-12 h)” value is given as 0.0536 (μg/mL)h. Further, in series [2], the “IC50, Cell Adhesion … (With human serum)” value stood at 0.07751 µg/mL and the “IC50, Cell Adhesion … (Without the human serum)” value stood at 0.005114 µg/mL.

Turning to “2-{2-diethylamino-5-[(3,5-dichlorobenzenesulfonyl)methylamino]pyrimidin-4-ylamino}-3-(4-dimethylcarbamoyloxyphenyl)propionic acid [Example 19]”, in series [1], the “AUC (average AUC 0-12 h)” value is listed as 0.0697 (μg/mL)h. In series [2], the “IC50, Cell Adhesion … (With human serum)” value is 0.08535 µg/mL and the “IC50, Cell Adhesion … (Without the human serum)” value was found to be 0.003393 µg/mL.

With “2-{2-diethylamino-5-[(3,5-difluorobenzenesulfonyl)ethylamino]pyrimidin-4-ylamino}-3-(4-dimethylcarbamoyloxyphenyl)propionic acid [Example 16]”, the “AUC (average AUC 0-12 h)” value in series [1] is listed as 0.1721 (μg/mL)h. In addition, in series [2], the “IC50, Cell Adhesion … (With human serum)” value is 0.06707 µg/mL and the “IC50, Cell Adhesion … (Without the human serum)” value was 0.001035 µg/mL.

“2-{2-diethylamino-5-[(3,5-difluorobenzenesulfonyl)methylamino]pyrimidin-4-ylamino}-3-(4-dimethylcarbamoyloxyphenyl)propionic acid [Example 15]”: the “AUC (average AUC 0-12 h)” value in series [1] was 0.2098 (μg/mL)h. For the same substance, in series [2], the “IC50, Cell Adhesion … (With human serum)” value stood at 0.1243 µg/mL and the “IC50, Cell Adhesion … (Without the human serum)” value is 0.000915 µg/mL.

In the case of “2-{2-diethylamino-5-[(3-fluorobenzenesulfonyl)methylamino]pyrimidin-4-ylamino}-3-(4-dimethylcarbamoyloxyphenyl)propionic acid [Example 7]”, the “AUC (average AUC 0-12 h)” value in series [1] was 0.717 (μg/mL)h. In addition, in series [2], the “IC50, Cell Adhesion … (With human serum)” value amounted to 0.5869 µg/mL and the “IC50, Cell Adhesion … (Without the human serum)” value came out at 0.000821 µg/mL.

Source of the values: patent US7335663B2, “Heteroaryl compounds which inhibit leukocyte adhesion mediated by α4 integrins” (Elan Pharmaceuticals, Inc., priority 2002, dated 2008).
